Among the data in ChEMBL document CHEMBL1157539, “Thousands of chemical starting points for antimalarial lead identification” (Nature, 2010) are XC50 values, retold here.

This assay deals with Plasmodium falciparum. The assay can be described thus: GSK_TCMDC: Inhibition of Plasmodium falciparum 3D7 in whole erythrocytes, using parasite LDH activity as an index of growth. The class given is functional, organism-based. The following applies: Plasmodium falciparum, 3D7.

In the case of `O=C(c1ccc(-c2ccc(-c3nc4cc(C(F)(F)F)ccc4[nH]3)s2)cc1)N1CCN(CCc2ccccc2)CC1`, the XC50 amounted to 0.592 µM.
In the case of `O=C(NC1CCCCC1)N(Cc1ccccc1-c1ccc(CNCCc2ccccc2)cc1)C1CCN(Cc2ccccc2)CC1` it was 0.93 µM; in that of `Cc1sc(NC(=O)c2ccc([N+](=O)[O-])cc2Cl)c(C(N)=O)c1C`, 0.931 µM.
In the case of `COc1ccc(C(=O)NCC(C)(C)c2nc(-c3ccc(Cl)c(O)c3)c(-c3ccncc3)[nH]2)cc1OCCN(C(C)C)C(C)C` it was 0.643 µM.
The same measure for `O=C(NC(Cc1ccccc1)C(=O)O)c1cc(=O)c2ccccc2o1` (configuration not stated): 0.191 µM; for `CCN(CC)CCCNc1ncc2c(-c3ccc(NC(=O)Nc4cc(C(F)(F)F)ccc4F)cc3)nn(C)c2n1`: 0.22 µM.
`NC1=NC(c2ccccc2)(c2ccccn2)C(=O)N1CCCc1ccccc1` (configuration not stated) displayed an XC50 of 1.04 µM.
`CNCCNCc1cccc(-c2cccc(-c3nc4cccc(C)c4[nH]3)c2)c1` had an XC50 of 0.766 µM.
The same measure for `Cc1ccc(NC(=O)Nc2ccccc2F)cc1-c1ccc(C(=O)Nc2ccncc2)cc1`: 0.563 µM; for `Cc1nc2nc(N)nc(N)c2c(C)c1Cc1cccc(C#N)c1`: 0.924 µM.
In the case of `N=C1NC(=N)N(OCCCCCCON2C(=N)NC(=N)NC2C=Cc2ccccc2)C(C=Cc2ccccc2)N1` (configuration not stated), the XC50 was 0.615 µM.
In the case of `CCCCNc1cc(C)nc(NCc2ccccc2)n1` it was 0.975 µM.
The same measure for `CCCC/C=C(\Cl)c1ccc(O)c2c1C[C@H]1C[C@H]3[C@H](N(C)C)C(O)=C(C(N)=O)C(=O)[C@@]3(O)C(O)=C1C2=O`: 1.09 µM; for `Cc1ccc2c(=O)c3cc(C)ccc3[nH]c2c1`: 0.424 µM.
In the case of `CC1(C)N=C(N)N=C(N)N1OCCCOc1cc(Cl)c(Cl)cc1Cl` it was 0.0032 µM; in that of `O=C(NC1CC1)c1cnc(N2CCCC(c3ccccc3)C2)c(Cl)c1` (configuration not stated), 0.797 µM.
On to `Cc1[nH]c(C)c(-c2ccc(OCCCCSc3ccncc3)cc2)c(=O)c1Br`, for which the XC50 was determined as 0.246 µM.
In the case of `Oc1cccc(/C=N/Nc2ccnc3cc(Cl)ccc23)c1` it was 0.728 µM.
The same measure for `Cc1cc(-c2ccc3c(c2)CCN(CCC2CCC(NC(=O)/C=C/c4ccc(F)cc4)CC2)CC3)on1` (configuration not stated): 0.724 µM; for `O=C(Nc1ccc(Cl)c(Cl)c1)N[C@H]1CCN(CCCCCNC(=O)C2CC2c2ccc(Cl)c(Cl)c2)C1` (some centres not stated): 1.03 µM.
Molecule `COc1ccc2ncc(F)c([C@H](O)CN3CCC(NCc4ccc5c(c4)NC(=O)CS5)CC3)c2c1` yielded an XC50 of 0.185 µM.
The same measure for `COc1ccc(-c2cc(C(=O)Nc3ccc(CCCN(C)Cc4ccc(OC)c(OC)c4)cc3)c3ccccc3n2)cc1`: 0.698 µM.
`Cc1c(S(=O)(=O)Nc2cccc(CCN3CCCCC3CCN3CCCC3)c2)sc2ccc(Cl)cc12` (configuration not stated) displayed an XC50 of 0.925 µM.
The same measure for `O=C(Nc1cccc(-c2cccc(-c3nc4cc(F)ccc4[nH]3)c2)c1)Nc1ccc(F)c(F)c1F`: 0.0891 µM; for `FC(F)(F)c1ccc2[nH]c(-c3ccc(-c4ccc(CNCC5CCCO5)cc4)s3)nc2c1` (configuration not stated): 0.158 µM.
The same measure for `CN(CCCNCc1ccc2ccccc2c1)CCCNCc1ccc2ccccc2c1`: 0.391 µM.
Turning to `CC(C)(C)c1ccc(CN2CCC(CNC(=O)c3cc(-c4cccc(Cl)c4)cs3)C2)cc1` (configuration not stated), the XC50 worked out at 1.16 µM.
In the case of `CCCCCC(C)N/C(=N/c1ccccc1Br)Nc1ccc([N+](=O)[O-])cc1O` (configuration not stated) it was 0.615 µM.
The same measure for `NC1=NC2(CCCCC2)N(OCCCCCCc2ccccc2)C(N)=N1`: 0.347 µM.
`COc1cccc(C(=O)Nc2ccc(S(=O)(=O)c3cc4c(cc3OC)CCN(C)CC4)cc2)c1` came in with an XC50 of 1.1 µM.
`FC(F)(F)c1ccc2[nH]ccc(=NN=Cc3ccc(Cl)cc3)c2c1` had an XC50 of 0.791 µM.
The same measure for `CCc1c[nH]c2c(N3CCCC3=O)cc(C(=O)N[C@@H](Cc3ccccc3)[C@H](O)CNC3CCCCC3)cc12`: 0.102 µM; for `Oc1cccc2ccc(Nc3ccccn3)nc12`: 0.752 µM; for `Cc1[nH]c2ccccc2c1C1CCN(CC2CCC(NC(=O)/C=C/c3ccc(Cl)c(Cl)c3)CC2)CC1` (configuration not stated): 0.822 µM.
The molecule `Clc1ccc2c(NN=Cc3cccnc3)ccnc2c1` registered an XC50 of 0.696 µM.
In the case of `Cc1cccc2nc(-c3cccc(-c4cccc(NC(=O)c5cccnc5)c4)c3)[nH]c12` it was 0.228 µM; in that of `COc1ccc(Cn2ncc3c4c(N)nc(N)nc4ccc32)cc1OC`, 0.0032 µM.
Regarding `Cc1cccc2c3c([nH]c12)C1(CCN(Cc2ccccc2)CC1)NC(C(=O)NCc1ccccc1)C3` (configuration not stated), the XC50 amounted to 1.37 µM.
In the case of `O=C(/C=C/c1ccc(Cl)c(Cl)c1)NCCCCCN1CCN(C(=O)Nc2ccc(Cl)c(C(F)(F)F)c2)CC1` it was 0.816 µM.
In the case of `O=C(NCCN1CCCC1)c1cccc(-c2ccc(-c3nc4cc(F)ccc4[nH]3)s2)c1` it was 1.53 µM; in that of `N=C(N)c1ccc(Oc2ccc(C(=N)N)cc2)cc1`, 0.317 µM; in that of `Cc1[nH]c(C)c(-c2ccc(-c3ccccc3)nc2)c(=O)c1Br`, 0.661 µM.
The same measure for `O=S(=O)(NCCN1CCCC1)c1ccc(-c2cccc(CNC3Cc4ccccc4C3)c2)cc1`: 0.618 µM; for `CCOC(=O)N1CCN(CCCNc2c3ccc(Cl)cc3nc3ccc(OC)cc23)CC1`: 0.104 µM; for `CC(C)NC(C)(C)CN(Cc1ccc(-c2ccc(C(F)(F)F)cc2)cc1)C(=O)Cn1c(CCc2cccc(F)c2F)nc(=O)c2ccccc21`: 0.908 µM.
Take `COc1ccccc1CN1CCC(NC(=O)c2ccc(-c3cccc(Cl)c3)s2)CC1`: the XC50 came to 1.42 µM.
Take `Cc1cc(C)c(C(=O)Nc2ccc3nc(C)cc(N)c3c2)c(C)c1`: the XC50 is 1.09 µM.
`CCn1c(SCc2ccccc2)nc2c1c(=O)[nH]c(=O)n2C` showed an XC50 of 0.241 µM.
The same measure for `Cc1cccc2nc(-c3ccc(-c4cccc(NC(=O)C(C)CN5CCN(C)CC5)c4)cc3)[nH]c12` (configuration not stated): 0.739 µM; for `CCC(CC)C(CC(=O)NC(C)(C)CCc1ccccc1OC)Nc1ccc(C#N)c2ccccc12` (configuration not stated): 0.796 µM.
In the case of `CC(Cc1ccc(OCCN2CCN(c3cccc(Cl)c3)CC2)cc1)NCC(O)c1cccc(Cl)c1` (configuration not stated) it was 1.21 µM.
In the case of `CCOC(=O)N[C@@H]1CN[C@@H](C#Cc2cc3c(Nc4ccc(OCc5cccc(F)c5)c(Cl)c4)ncnc3s2)C1`, the XC50 is 1.08 µM.
The same measure for `N#Cc1ccc(-c2cnc3ccc(NCc4ccc(S(N)(=O)=O)cc4)nn23)cc1`: 0.785 µM.
In the case of `COCCNCc1ccc(-c2cccc(CNC3CCN(Cc4ccccc4)CC3)c2)cc1` it was 0.333 µM; in that of `O=C(c1ccccc1[N+](=O)[O-])N(Cc1ccccc1)c1ccccn1`, 0.192 µM.
For `CCOC(=O)c1ccc(NC(=O)N[C@@H](Cc2ccccc2)C(=O)NC2CCN(Cc3ccc(O)c(OC)c3)C2)cc1` (some centres not stated), the XC50 amounted to 0.989 µM.
Take `Nc1nc(N)c2cc(N(Cc3ccccc3)Cc3ccccc3)ccc2n1`: the XC50 is 0.612 µM.
In the case of `Cc1cccc2nc(-c3cccc(-c4cccc(CNCC5CCCO5)c4)c3)[nH]c12` (configuration not stated) it was 0.602 µM; in that of `CCNc1cc(C(=O)N[C@@H](Cc2ccccc2)[C@H](O)CNCCc2ccccc2)cc(N2CCCCS2(=O)=O)c1`, 0.936 µM; in that of `Cc1cc(Cl)c(S(=O)(=O)N(C)c2ccccc2)cc1OCC(=O)NC1CCCCC1`, 0.296 µM.
As for `O=C(CN1CCN(C(C(=O)Nc2cc(C(F)(F)F)ccc2Cl)c2ccccc2)CC1)NC1CC1` (configuration not stated), the XC50 worked out at 0.443 µM.
The same measure for `Cc1ccc2[nH]c(C)cc(=NN=CC=Cc3ccccc3)c2c1`: 0.84 µM.
